Measurements published in ChEMBL document CHEMBL1128871, “Synthesis and in vitro cytotoxicity of ()-acetomycin and related analogs” (Bioorg Med Chem Lett, 1995).

How the values were obtained:
B16 = assay: Tested for cytotoxic activity against B16 mouse melanoma cells in MTT assay; format: functional, cell-based
DA-3 cell line = assay: Tested for cytotoxic activity against DA-3 mouse mammary adenocarcinoma cells in MTT assay; format: functional, cell-based
HT-29 = assay: Tested for cytotoxic activity against HT-29 human colon adenocarcinoma cells in MTT assay; format: functional, cell-based
MCF7 [1] = assay: Tested for cytotoxic activity against MCF7-WT human breast adenocarcinoma cells in MTT assay; format: functional, cell-based
[2] = Half-life period was determined in mouse blood; format: ADME, organism-based
MCF7 [3] = assay: Tested for cytotoxic activity against MCF7-WT human breast adenocarcinoma cells in MTT assay.; format: functional, cell-based

Row | SMILES | IC50 (B16) [µM] | IC50 (DA-3 cell line) [µM] | IC50 (HT-29) [µM] | IC50 (MCF7 [1]) [µM] | half-life [2] [min] | IC50 (MCF7 [3]) [µM]
1 | CC(=O)O[C@@H]1OC(=O)[C@](O)(C(C)=O)[C@@H]1C | > 50 | > 50 | > 50 | > 50 | – | –
2 | CC(=O)O[C@@H]1OC(=O)[C@@](C)(C(C)=O)[C@@H]1C | 14 | 9 | 12 | > 10 | – | –
3 | CC(=O)O[C@@H]1OC(=O)[C@](C)(C(C)=O)[C@@H]1C | 4 | 7 | 5 | 6 | < 5 | –
4 | CC(=O)[C@@]1(C)C(=O)O[C@@H](OC(=O)C(C)(C)C)[C@H]1C | 2 | 1 | 2 | 3 | < 5 | –
5 | CC(=O)O[C@@H]1OC(=O)[C@](Cc2ccccc2)(C(C)=O)[C@@H]1C | 41 | 45 | 40 | – | – | 48
6 | CC(=O)O[C@@H]1OC(=O)[C@](OC(=O)c2ccccc2)(C(C)=O)[C@@H]1C | 6 | 3 | 8 | 22 | – | –
7 | CC(=O)O[C@@H]1OC(=O)[C@@](C(C)=O)(C2SCCCS2)[C@@H]1C | > 50 | > 50 | > 50 | > 50 | – | –
8 | CC(=O)CC[C@]1(C(C)=O)C(=O)O[C@@H](OC(C)=O)[C@H]1C | 7 | 8 | 7 | 6 | – | –
9 | CC(=O)O[C@@H]1OC(=O)[C@](Br)(C(C)=O)[C@@H]1C | 9 | 6 | 12 | 17 | – | –
10 | CC(=O)O[C@@H]1OC(=O)[C@](C)(C(=O)CBr)[C@@H]1C | 6 | 4 | 6 | 4 | – | –
11 | CC(=O)O[C@@H]1OC(=O)[C@@](O)(C(C)=O)[C@@H]1C | > 50 | > 50 | > 50 | > 50 | – | –
12 | CC(=O)O[C@@H]1OC(=O)[C@](OC(C)=O)(C(C)=O)[C@@H]1C | > 50 | > 50 | > 50 | > 50 | – | –
13 | CCO[C@@H]1OC(=O)[C@@](C)(C(C)=O)[C@@H]1C | > 50 | > 50 | > 50 | > 50 | – | –
14 | CC(=O)O[C@@H]1OC(=O)[C@@](C)(C(=O)c2ccccc2)[C@@H]1C | 7 | 15 | 7 | – | – | 15
15 | CC(=O)O[C@@H]1OC(=O)[C@@](C)(C(C)=O)[C@@H]1C(C)C | > 50 | > 50 | > 50 | > 50 | – | –
16 | CC(=O)[C@]1(C)C(=O)O[C@@H](OC(=O)c2ccccc2)[C@H]1C | 5 | 2 | 6 | 8 | – | –
17 | CC(=O)[C@@]1(C)C(=O)O[C@@H](OC(=O)c2ccccc2)[C@H]1C | 1 | 1 | 1 | 3 | < 5 | –
18 | CCO[C@@H]1OC(=O)[C@](C)(C(C)=O)[C@@H]1C | > 50 | > 50 | > 50 | > 50 | – | –
19 | CC(=O)O[C@@H]1OC(=O)[C@@](Cc2ccccc2)(C(C)=O)[C@@H]1C | 45 | 44 | 39 | 51 | – | –
20 | CC(=O)O[C@@H]1OC(=O)[C@](C)(C(C)=O)[C@@H]1C(C)C | > 50 | > 50 | > 50 | > 50 | – | –
21 | CC(=O)O[C@@H]1OC(=O)[C@@](OC(C)=O)(C(C)=O)[C@@H]1C | > 50 | > 50 | > 50 | > 50 | – | –
22 | CC(=O)O[C@@H]1OC(=O)[C@@H](C(C)=O)[C@@H]1C | > 50 | > 50 | > 50 | > 50 | – | –
23 | CC(=O)[C@]1(C)C(=O)O[C@@H](OC(=O)C(C)(C)C)[C@H]1C | 10 | 4 | 9 | 7 | – | –
